From ChEMBL document CHEMBL1201862, “PubChem BioAssay data set” (2004)
Activity calls are given as the source filed them.

Key:
[1] = target: T1, Tyrosine-protein phosphatase non-receptor type 11 (Homo sapiens, UniProt Q06124); test: PTPN11 enzyme inhibitors – biochemical, selectivity assay for STEP inhibitor project, dose response (AID 602367); format: functional; settings: read-out: IC50_Mean
T1 sequence (Q06124 whole entry): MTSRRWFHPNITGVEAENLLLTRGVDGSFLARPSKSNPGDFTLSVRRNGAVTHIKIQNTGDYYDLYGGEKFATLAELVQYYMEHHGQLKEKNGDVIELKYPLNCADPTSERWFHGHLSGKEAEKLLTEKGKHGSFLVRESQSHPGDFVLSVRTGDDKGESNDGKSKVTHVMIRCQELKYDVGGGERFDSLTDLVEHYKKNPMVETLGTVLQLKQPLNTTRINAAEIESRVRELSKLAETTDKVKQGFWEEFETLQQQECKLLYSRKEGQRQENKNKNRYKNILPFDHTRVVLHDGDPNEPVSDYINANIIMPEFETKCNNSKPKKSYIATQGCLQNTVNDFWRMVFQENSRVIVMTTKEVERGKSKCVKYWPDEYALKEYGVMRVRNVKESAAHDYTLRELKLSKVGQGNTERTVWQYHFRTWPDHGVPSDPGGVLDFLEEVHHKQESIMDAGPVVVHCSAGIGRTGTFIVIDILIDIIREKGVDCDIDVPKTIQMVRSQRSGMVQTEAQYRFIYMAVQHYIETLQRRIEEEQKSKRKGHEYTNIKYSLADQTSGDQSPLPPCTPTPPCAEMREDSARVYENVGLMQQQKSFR

[2] = target: T2, Tyrosine-protein phosphatase non-receptor type 5 (Homo sapiens, UniProt P54829); test: PTPN5 enzyme inhibition – biochemical, fluorescence intensity, uHTS hits, confirmation (AID 602372); format: functional; settings: read-out: IC50_Mean
T2 sequence (P54829 whole entry): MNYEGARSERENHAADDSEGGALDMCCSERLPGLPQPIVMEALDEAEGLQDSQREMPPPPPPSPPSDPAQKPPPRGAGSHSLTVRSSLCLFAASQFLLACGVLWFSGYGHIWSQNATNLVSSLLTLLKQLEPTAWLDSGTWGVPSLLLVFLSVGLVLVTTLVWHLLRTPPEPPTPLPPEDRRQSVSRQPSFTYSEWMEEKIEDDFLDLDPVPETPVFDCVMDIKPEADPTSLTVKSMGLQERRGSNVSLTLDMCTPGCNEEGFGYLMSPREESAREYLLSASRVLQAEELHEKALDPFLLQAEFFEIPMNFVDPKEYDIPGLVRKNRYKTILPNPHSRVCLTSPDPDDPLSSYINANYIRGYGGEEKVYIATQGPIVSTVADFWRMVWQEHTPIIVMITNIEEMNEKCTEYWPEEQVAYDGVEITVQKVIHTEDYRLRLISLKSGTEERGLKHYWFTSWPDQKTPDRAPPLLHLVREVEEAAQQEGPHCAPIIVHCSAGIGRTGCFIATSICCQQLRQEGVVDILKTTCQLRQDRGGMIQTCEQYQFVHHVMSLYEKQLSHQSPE

[3] = target: Dual specificity protein phosphatase 3 (Homo sapiens, UniProt P51452); test: VHR phosphatase inhibition, dose response, selectivity assay for STEP inhibitor project, biochemical (AID 602374); format: functional; settings: read-out: IC50_Mean
Chain of Dual specificity protein phosphatase 3 (P51452 whole entry): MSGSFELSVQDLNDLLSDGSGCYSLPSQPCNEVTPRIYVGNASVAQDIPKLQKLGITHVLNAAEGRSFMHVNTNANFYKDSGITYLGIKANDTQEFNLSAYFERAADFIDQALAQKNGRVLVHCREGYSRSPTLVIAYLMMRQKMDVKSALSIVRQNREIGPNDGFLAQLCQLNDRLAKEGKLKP

[4] = target: T3, DNA repair and recombination protein RAD54-like (Homo sapiens, UniProt Q92698); test: RAD54 Holliday junction migration blockers – biochemical, fluorescence, cherry-picked samples, dose series, confirmation (AID 651657); format: functional
T3 sequence (Q92698 whole entry): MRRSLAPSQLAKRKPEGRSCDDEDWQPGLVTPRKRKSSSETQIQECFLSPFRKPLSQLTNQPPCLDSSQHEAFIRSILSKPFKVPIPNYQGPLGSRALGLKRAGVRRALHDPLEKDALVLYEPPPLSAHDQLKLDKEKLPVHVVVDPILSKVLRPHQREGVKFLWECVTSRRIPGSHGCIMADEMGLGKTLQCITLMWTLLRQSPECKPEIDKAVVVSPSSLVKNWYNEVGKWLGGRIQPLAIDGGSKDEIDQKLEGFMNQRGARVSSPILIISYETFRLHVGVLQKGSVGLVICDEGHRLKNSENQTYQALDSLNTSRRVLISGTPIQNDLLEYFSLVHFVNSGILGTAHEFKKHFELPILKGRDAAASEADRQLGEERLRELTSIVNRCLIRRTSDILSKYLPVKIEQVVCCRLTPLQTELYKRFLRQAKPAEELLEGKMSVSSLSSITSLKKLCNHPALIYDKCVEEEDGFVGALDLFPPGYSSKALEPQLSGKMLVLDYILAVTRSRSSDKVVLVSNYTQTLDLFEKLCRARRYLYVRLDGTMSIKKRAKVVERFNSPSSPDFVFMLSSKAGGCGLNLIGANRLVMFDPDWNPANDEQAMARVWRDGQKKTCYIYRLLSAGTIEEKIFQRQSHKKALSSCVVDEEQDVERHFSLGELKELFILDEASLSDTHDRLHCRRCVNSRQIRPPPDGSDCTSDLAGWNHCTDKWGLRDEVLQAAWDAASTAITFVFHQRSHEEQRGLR

[5] = target: T4, Hepatocyte nuclear factor 4-alpha (Homo sapiens, UniProt P41235); format: functional, cell-based;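 note: biochemical luminescence-based dose-response counterscreen measuring inhibition of HNF4 dimerization, run alongside a screen for blockers of ABHD5–perilipin-5 interaction; split luciferase complementation of HNF4 fusion proteins in cell lysate measuring dimerization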
T4 sequence (P41235 whole entry): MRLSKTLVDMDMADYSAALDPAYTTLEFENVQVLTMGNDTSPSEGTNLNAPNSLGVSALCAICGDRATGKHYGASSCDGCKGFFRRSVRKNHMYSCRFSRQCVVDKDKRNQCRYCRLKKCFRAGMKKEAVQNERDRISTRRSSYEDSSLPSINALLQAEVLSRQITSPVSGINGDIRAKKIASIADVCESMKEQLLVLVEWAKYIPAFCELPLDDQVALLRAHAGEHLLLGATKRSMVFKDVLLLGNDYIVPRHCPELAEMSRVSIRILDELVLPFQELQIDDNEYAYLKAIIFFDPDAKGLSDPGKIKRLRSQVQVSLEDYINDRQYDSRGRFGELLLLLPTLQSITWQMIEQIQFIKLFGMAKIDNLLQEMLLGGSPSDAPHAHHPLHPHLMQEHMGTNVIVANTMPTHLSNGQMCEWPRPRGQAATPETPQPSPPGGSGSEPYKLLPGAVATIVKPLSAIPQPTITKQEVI

Genome polyprotein = Genome polyprotein (dengue virus type 2, UniProt P29990); test: flavivirus cap methylation enzyme inhibition – biochemical, confirmation dose response, primary screen (AID 588689); format: functional
Chain of Genome polyprotein (P29990 2492-3391 limits assumed): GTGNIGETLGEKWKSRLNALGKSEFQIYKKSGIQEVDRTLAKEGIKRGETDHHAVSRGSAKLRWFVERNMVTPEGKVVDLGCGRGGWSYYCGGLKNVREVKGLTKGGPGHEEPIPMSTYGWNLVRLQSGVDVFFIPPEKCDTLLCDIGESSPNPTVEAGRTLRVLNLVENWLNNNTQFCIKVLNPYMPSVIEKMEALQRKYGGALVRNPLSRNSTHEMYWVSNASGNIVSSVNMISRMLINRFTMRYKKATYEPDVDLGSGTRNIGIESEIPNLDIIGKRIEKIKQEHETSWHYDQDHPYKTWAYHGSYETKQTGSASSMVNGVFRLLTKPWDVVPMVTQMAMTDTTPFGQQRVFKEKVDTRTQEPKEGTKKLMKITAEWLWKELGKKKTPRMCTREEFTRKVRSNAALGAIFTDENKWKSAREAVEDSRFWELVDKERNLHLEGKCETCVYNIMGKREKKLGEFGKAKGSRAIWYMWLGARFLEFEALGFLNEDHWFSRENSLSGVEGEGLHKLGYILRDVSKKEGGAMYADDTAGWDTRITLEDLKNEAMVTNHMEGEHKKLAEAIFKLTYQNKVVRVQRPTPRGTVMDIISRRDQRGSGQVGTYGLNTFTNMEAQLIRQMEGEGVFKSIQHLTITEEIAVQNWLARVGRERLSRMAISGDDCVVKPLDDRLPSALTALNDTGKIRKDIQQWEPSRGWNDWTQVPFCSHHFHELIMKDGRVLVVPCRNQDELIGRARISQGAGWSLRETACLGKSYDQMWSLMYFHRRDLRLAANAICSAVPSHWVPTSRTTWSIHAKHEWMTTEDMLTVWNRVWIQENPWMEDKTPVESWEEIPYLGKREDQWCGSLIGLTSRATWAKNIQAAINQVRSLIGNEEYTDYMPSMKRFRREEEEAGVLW

[6] = bead-based luminescence quenchers, dual-tagged ARNT – biochemical, AlphaScreen, cherry-pick, artefact control for ARNT-TACC3 interaction inhibitor project, dose response (AID 651705); format: functional;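 note: AlphaScreen bead proximity signal that flags compounds interfering with the detection technology; potency reflects signal decrease which marks the compound as an assay artifact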
H9c2 = test: cells; format: functional, cell-based; settings: Rattus norvegicus, H9c2, Myocardium;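 note: confirmatory concentration-response retest of ultra-high-throughput screening hits for modulation of myocardial damage; cell death induced by hydrogen peroxide oxidative stress; compound pretreatment for 60 min then peroxide exposure for 2 h; potency is for protecting the cells against peroxide damage rather than for killing them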
[7] = NIH3T3 cell viability loss – ATP luminescence, mouse fibroblasts, counter-screen, dose response (AID 2010); format: functional, cell-based;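 note: cells exposed to compound for about 90 hours before reading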
[8] = Trypanosoma cruzi growth suppression in host cells – NIH3T3 host cells, beta-gal luminescence, confirmation (AID 2044); format: functional, cell-based;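 note: intracellular parasites grown in NIH/3T3 mouse fibroblasts as host cells; luminescent beta-galactosidase reporter signal from transgenic T. cruzi replicating inside host cells; inhibitors lower the luminescence signal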
cells [9] = format: functional, cell-based
cells [10] = format: functional, cell-based; remark: listed apart in the source
[11] = target: Glucose-6-phosphate 1-dehydrogenase (Homo sapiens, UniProt P11413); test: inhibition of Homo sapiens G6PD, dose series – biochemical, fluorescence, selectivity assay for P. falciparum G6PD inhibitor project, dose response (AID 504792); format: functional
Chain of Glucose-6-phosphate 1-dehydrogenase (P11413 whole entry): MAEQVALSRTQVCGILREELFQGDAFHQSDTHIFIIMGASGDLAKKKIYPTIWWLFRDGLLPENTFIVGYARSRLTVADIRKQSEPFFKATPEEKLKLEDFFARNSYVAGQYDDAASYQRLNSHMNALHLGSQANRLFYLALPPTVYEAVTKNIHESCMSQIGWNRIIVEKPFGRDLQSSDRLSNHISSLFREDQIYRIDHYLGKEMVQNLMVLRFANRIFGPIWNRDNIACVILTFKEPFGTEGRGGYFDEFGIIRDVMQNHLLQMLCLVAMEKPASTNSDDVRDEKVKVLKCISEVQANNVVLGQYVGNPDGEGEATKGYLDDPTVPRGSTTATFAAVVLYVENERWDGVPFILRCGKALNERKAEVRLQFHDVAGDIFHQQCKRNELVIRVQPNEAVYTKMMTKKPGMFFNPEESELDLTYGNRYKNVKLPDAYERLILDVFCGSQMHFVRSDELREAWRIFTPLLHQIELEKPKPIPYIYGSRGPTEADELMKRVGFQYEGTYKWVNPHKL

[12] = target: T5, Sentrin-specific protease 8 (Homo sapiens, UniProt Q96LD8); format: functional
T5 sequence (Q96LD8 whole entry): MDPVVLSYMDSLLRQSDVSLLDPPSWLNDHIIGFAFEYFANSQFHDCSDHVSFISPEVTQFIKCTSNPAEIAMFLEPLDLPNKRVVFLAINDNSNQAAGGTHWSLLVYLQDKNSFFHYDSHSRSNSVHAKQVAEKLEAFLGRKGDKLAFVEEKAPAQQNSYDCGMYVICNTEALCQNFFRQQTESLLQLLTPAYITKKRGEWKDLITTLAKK

[13] = target: T5, Sentrin-specific protease 8; format: functional; remark: listed apart in the source
[14] = target: T6, DNA repair protein RAD52 homolog (Homo sapiens, UniProt P43351); format: functional, biochemical
T6 sequence (P43351 whole entry): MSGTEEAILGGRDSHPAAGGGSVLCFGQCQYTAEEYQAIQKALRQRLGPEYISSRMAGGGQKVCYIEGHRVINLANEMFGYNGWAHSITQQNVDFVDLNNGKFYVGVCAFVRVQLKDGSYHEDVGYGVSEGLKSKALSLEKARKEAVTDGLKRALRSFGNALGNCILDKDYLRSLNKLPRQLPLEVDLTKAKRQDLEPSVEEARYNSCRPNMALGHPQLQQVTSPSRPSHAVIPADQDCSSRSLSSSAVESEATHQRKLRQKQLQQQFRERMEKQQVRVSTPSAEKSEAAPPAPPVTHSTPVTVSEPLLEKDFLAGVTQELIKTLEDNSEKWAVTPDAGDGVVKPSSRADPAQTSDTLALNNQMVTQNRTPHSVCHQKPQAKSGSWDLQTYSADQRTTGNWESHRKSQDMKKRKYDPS

[15] = target: T7, Ubiquitin-conjugating enzyme E2 N (Homo sapiens, UniProt P61088); format: functional;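 note: Dose-response confirmation in a TR-FRET assay detecting UBC13-driven polyubiquitin chain formation, inhibition measured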
T7 sequence (P61088 whole entry): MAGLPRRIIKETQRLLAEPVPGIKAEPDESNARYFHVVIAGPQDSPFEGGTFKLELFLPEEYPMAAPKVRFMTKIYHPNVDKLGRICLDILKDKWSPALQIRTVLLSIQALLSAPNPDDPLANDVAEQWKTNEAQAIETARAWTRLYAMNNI

O=C(C1=C(O)C(=O)N(CCCO)C1c1ccc(Br)cc1)c1ccc(Br)cc1 (centres undefined)
IC50 [1]: 58.9 µM (inactive) | IC50 [2]: 36.2 µM (inactive) | IC50 [3]: 73.4 µM (inactive)

CCOC(=O)c1c(NC(=O)c2ccc(S(=O)(=O)N3CCOCC3)cc2)sc2c1CCN(C(C)C)C2
AC50 [4]: 8.89 µM (active)

COc1ccc(C(C(=O)NC2CCCCC2)n2c(=O)c(-c3ccco3)nc3ccccc32)cc1 (centres undefined)
IC50 [5]: 1.75 µM (active)

O=C1NC(=S)NC(=O)C12C(c1ccccc1)NC(=S)NC2c1ccccc1 (centres undefined)
IC50 [5]: 5.81 µM (active) | IC50 (Genome polyprotein): 69.4 µM (active)

CCCCN(CC)CCCN=C(S)Nc1ccc2nc(N3CCN(CC)CC3)cc(C)c2c1
AC50 [4]: 25.7 µM (active)

CC(C)[C@H](NC(=O)c1ccccc1Cl)C(=O)Nc1nc(-c2ccccn2)cs1
AC50 [6]: 73.8 µM (active) | IC50 (H9c2): 8.83 µM (active) | EC50 [7]: 11.7 µM (active) | EC50 [8]: 2.23 µM (active) | EC50 (cells [9]): > 350 µM (not active) | EC50 (cells [10]): 24 µM (active)

OCCN1CCN(C(=S)c2ccc(Cl)c(Cl)c2)CC1
AC50 [6]: 132 µM (active) | IC50 [11]: > 80 µM (inactive) | IC50 [12]: 18.4 µM (active) | IC50 [1]: 1.99 µM (active) | IC50 [2]: 8.95 µM (active) | IC50 [13]: 10.8 µM (active) | IC50 [3]: 0.339 µM (active)

CCN(CC)Cc1cc2[nH]c3c4ccc(Cl)cc4ncc3c2cc1OC
AC50 [4]: 14.6 µM (active) | AC50 [14]: 3.1 µM (active) | IC50 [15]: > 20 µM (inactive)
